{"source": "patent US9695463B2", "about": "“DNA 5-methyl cytosine demethylation activity of vertebrate DNA methyltransferases” (Academia Sinica, priority 2012, dated 2017)", "key": {"recombinant DNMT3B": {"biological_target": "T1, recombinant DNMT3B (Mus musculus, UniProt O88509)", "T1 construct": "purchased BPS Bioscience; host or cells: recombinant baculovirus-infected Sf9 insect cells", "assay": "Effect of Ca2+ and DTT on the C to 5-mC methylation reaction of recombinant DNMT3B (hydrolysis-TLC assay)", "type": "biochemical", "conditions": "40 nM recombinant DNMT3B, unmethylated pMR1-8, 160 μM SAM, 1 mM CaCl2 or 5 mM DTT, 37°C, 4 h", "protocol": "(§1) FIGS. 3A-B show the effects of a reducing condition and SAM on the DNA demethylation and methylation activities of DNMT3B. […] After incubation at 37° C. for 4 h, the DNA products were analyzed by the hydrolysis-TLC assay. The results are quantitatively presented in the histogram. […] After incubation at 37° C. for 4 h, the extents of C methylation of the DNAs from the different reactions were determined by hydrolysis-TLC assay and quantitatively compared in the histogram. Error bars indicate S.D.\nMethylation in vitro of unmodified pMR1-8 plasmid DNA by the DNMTs were carried out and analyzed by the hydrolysis-TLC assay. When needed, 1 mM CaCl2 or 5 mM DTT was also included in the reaction mixture."}, "[1]": {"system": "DNA demethylation activity of porcine sperm nuclear extract", "assay": "In vitro DNA demethylation by porcine sperm nuclear extract (restriction digestion-PCR assay)", "type": "biochemical", "conditions": "for effect on the in vitro DNA demethylation activity of the sperm nuclear extract: 10 mM CaCl2, increasing concentrations of inhibitor (APE-i to 1 mM, 3-AB to 50 mM, THU to 1 mM)", "protocol": "The nuclear extracts were prepared from the porcine sperms and 293T cells, respectively, by a modified method. Briefly, the porcine semen was washed three times by PBS buffer and the sperm pellet isolated with FICOLL®. The pellet was resuspended in a hypotonic buffer (10 mM Tris-HCl, pH7.4, 10 mM NaCl, 10 mM EDTA and EDTA-free protease inhibitors) on ice for 15 minutes. The resuspended sperms were passed through a G21 needle 10 times and then centrifuged at 13,200 rpm at 4° C. for 10 min. The supernatant was removed and the pellet of the nuclei was resuspended in a resuspension buffer (10 mM Tris-HCl, pH7.4, 10 mM NaCl, 1.5 mM, MgCl2 and EDTA-free protease inhibitors), and an equal volume of 1M NaCl was added for 30 min incubation on ice."}, "recombinant mouse DNMT3B": {"biological_target": "T2, recombinant mouse DNMT3B (Mus musculus, UniProt O88509)", "T2 construct": "purchased BPS Bioscience; host or cells: recombinant baculovirus-infected Sf9 insect cells", "assay": "Effect of Ca2+, DTT, SAM and H2O2 on the DNA demethylation activity of recombinant DNMT3B (hydrolysis-TLC assay)", "type": "biochemical", "protocol": "M, mock control without incubation.\nas §1\nRx, reactions. […] M, mock control without incubation."}, "[2]": {"system": "5-mC-containing double-stranded DNA substrate", "assay": "5-mC to C conversion by 293T nuclear extracts with exogenously expressed mouse DNMTs (hydrolysis-TLC assay)", "type": "biochemical", "conditions": "293T nuclear extract with exogenously expressed mouse enzyme, buffer B, 10 mM Ca2+"}, "[3]": {"system": "5-mC-containing DNA substrate", "assay": "5-mC to C conversion by recombinant DNMTs (hydrolysis-TLC assay)", "conditions": "40 nM recombinant DNMT3B, 1 mM CaCl2, 37°C, 2 h (reaction 1)"}}, "data": [{"compound": "O[C@H](CS)[C@H](O)CS", "note": "(racemic) [DTT, dithiothreitol]", "values": [{"measurement": "effect on the 5-C methylation reaction of DNMTs (in words)", "setting": "recombinant DNMT3B", "value": "nor was it affected"}]}, {"compound": "NC(=O)c1cccc(N)c1", "note": "[3-aminobenzamide]", "values": [{"measurement": "effect on the in vitro DNA demethylation activity of the sperm nuclear extract", "setting": "[1]", "value": "little effect"}]}, {"compound": "O=C(O)c1cc2cccc([N+](=O)[O-])c2[nH]1", "note": "[CRT0044876]", "values": [{"measurement": "effect on the in vitro DNA demethylation activity of the sperm nuclear extract", "setting": "[1]", "value": "little effect"}]}, {"compound": "[Ca+2].[Cl-].[Cl-]", "note": "[Ca^2+, CaCl2]", "values": [{"measurement": "reduction of the extent of DNA methylation", "setting": "[1]; 1-10 mM Ca2+, fully methylated pMR1-8 plasmid, 37°C, 2 h", "value": "20-50%"}, {"measurement": "effect on the 5-C methylation reaction of DNMTs (in words)", "setting": "recombinant DNMT3B", "value": "did not require"}]}, {"compound": "OO", "note": "[H2O2]", "values": [{"measurement": "effect on the enzyme activity of DNMT3B after SAM (in words)", "setting": "recombinant mouse DNMT3B; 1 mM H2O2 added after reaction 2, another 2 h (reaction 3)", "value": "led to the switch of the enzyme activity of DNMT3B from methylation to demethylation again"}]}, {"compound": "C[S+](CC[C@H](N)C(=O)O)C[C@H]1O[C@@H](n2cnc3c(N)ncnc32)[C@H](O)[C@@H]1O", "note": "(some centres unmarked) [SAM, S-adenosylmethionine]", "values": [{"measurement": "C converted back to 5-mC", "setting": "recombinant mouse DNMT3B; 160 μM SAM added after reaction 1, continued 1 h incubation (reaction 2)", "value": "more than 60%"}]}, {"compound": "O=C1NC(O)CCN1[C@@H]1O[C@H](CO)[C@@H](O)[C@H]1O", "note": "(some centres unmarked) [tetrahydrouridine]", "values": [{"measurement": "effect on the in vitro DNA demethylation activity of the sperm nuclear extract", "setting": "[1]", "value": "little effect"}]}, {"compound": "DNMT1: mouse DNA methyltransferase 1 exogenously expressed in 293T nuclear extract (SEQ ID NO: 5)", "values": [{"measurement": "5-mC residues on the DNA substrate from which the 5-methyl group was removed", "setting": "[2]", "value": "approximately 30%"}]}, {"compound": "DNMT3B: mouse DNA methyltransferase 3B, expressed in 293T nuclear extract or recombinant from BPS Bioscience (SEQ ID NO: 9)", "values": [{"measurement": "5-mC residues on the DNA substrate from which the 5-methyl group was removed", "setting": "[2]", "value": "approximately 30%"}, {"measurement": "5-mC on the DNA substrate demethylated at the end of the first reaction", "setting": "[3]", "value": "approximately 60%"}]}]}
